# Where two headings read alike, the source gives them in different places. Numbered stars: 1 amine (or outer) side, 2 acyl side, 3 side chain; on linkers, the order of the positions; unused ones are H or OH. Bridge positions count the residues as written; N and C are the ends. Square brackets hold non-standard residues; d marks the D form. Peptide text beside a SMILES is read from it. hTyr = N[C@@H](CCc1ccc(O)cc1)C(=O)O; NMeA = CN[C@@H](C)C(=O)O; CO = O=C([*:1])[*:2]
# Assays:
# physchem = type: physicochemical; conditions: cells or culture medium, 3rd day, mean ± SD, n = 3, read-out: Peptide Remaining Concentration (%), Negative Control, 3rd Day
# Experimental: OD-corrected P. toxinivorans was transferred to the 96-well microplate in a solution with fresh culture media and individual peptides. For all experimental conditions, microplates were prepared to allow different sampling times over 7 days of incubation in a shaker incubator at 150 rpm and 28 °C. Three different plates were initially prepared maintaining the same conditions, and they were, respectively, taken to be considered as sampling time at 0, 3, and 7th days. This procedure was established in order to sample only once from each well to avoid the effect of differing volumes and potential contamination. At each sampling time, 150 µL were taken and added to 150 µL of 80% aqueous methanol solution with 2% formic acid (in a 1.5 mL centrifuge tube) in order to kill bacteria and stop their metabolism, as well as to precipitate large proteins, which could affect analytical procedures. Samples were centrifuged for 15 min at 13,000× g. Supernatants were recovered, 1:10 diluted (100:900 μL) in aqueous methanol 80% and stored at −20 °C until ultrahigh performance liquid chromatography coupled to mass spectrometry analysis (UPLC–MS). This experimental design was applied in all experiments in order to evaluate the biodegradation of peptides by P. toxinivorans. All experimental conditions were carried out in biological replicates (n = 3) and with negative controls without bacteria.
# All peptides studied were analyzed by UPLC–PDA–MS/MS (Waters®, Manchester, UK) as described previously by Turner et al.. Briefly, chromatographic separation was carried out using a Waters ACQUITY UPLC BEH C18 column (1.7 µm, 2.1 × 100 mm) held at 60 °C. Samples were kept in the sample manager at 10 °C and the injection volume was 5 µL. Mobile phase consisted of (A) water + 0.025% formic acid and (B) acetonitrile + 0.025% formic acid at a flow rate of 0.6 mL/min. The gradient consisted of 2% B initial condition rising to 25% B at 0.5 min holding until 1.5 min, rising to 40% B at 3.0 min, increasing further to 50% B at 4 min, a quick rise to 95% B and 4.1 min and held until 4.5 min before dropping back to 2% B at 5 min. Detection wavelength was set at 238 nm. Mass spectrometric detection was performed with a triple quadrupole mass spectrometer (Waters Xevo TQ-XS, Manchester, UK) equipped with an electrospray ionization (ESI) interface operating in positive ionization mode. Operational parameters were as follow: 150 °C source temperature, 600 °C desolvation temperature, 600 L/h desolvation gas flow (N2), 150 L/h cone gas flow, and 0.15 mL/min collision gas flow (Ar). Capillary voltage was held at 1.0 kV. Multiple Reaction Monitoring (MRM) transitions used as well as retention time, chemical structure, and respective formula of peptides can be found in Table S2. […]
# [1] = Paucibacter toxinivorans (2C20) culture (OD600 0.4) in R2A media, pure MC-LR; conditions: Paucibacter toxinivorans 2C20 strain, 28 °C, up to 7 days
# [2] = Y2 strain culture; individual peptide, peptide mix, and M. aeruginosa crude extract; conditions: Sphingosinicella microcystinivorans (Y2 strain)
# [3] = enzymatic activity of a Sphingomonas species that possess mlr pathway; conditions: cited from earlier work
# [4] = Paucibacter toxinivorans (2C20) culture in R2A media with cyanopeptide mix; conditions: Paucibacter toxinivorans 2C20 strain, 28 °C, up to 7 days
# [5] = enzymatic biodegradation product of Sphingopyxis sp. USTB05; conditions: cited from earlier work
# [6] = Individual peptide, 10 μg/mL, UPLC-MS/MS
Molecule,remaining at 72 h (physchem; [6]),not cleaved [2],other results
"CC[C@H](C)[C@@H]1NC(=O)[C@@H]2CSC(=N2)[C@@H]([C@@H](C)CC)NC(=O)c2csc(n2)CNC(=O)[C@H]2N=C1O[C@@H]2C [AC-A, aerucyclamide A]",,,"remaining at 72 h (physchem; In MIX: MC-LR 10 μg/mL, other cyanopeptides 1 µg/mL): 109 ± 5.6%"
"CSCC[C@@H]1NC(=O)[C@@H]2CSC(=N2)[C@@H](Cc2ccccc2)NC(=O)c2csc(n2)CNC(=O)[C@H]2N=C1O[C@@H]2C [AC-D, aerucyclamide D]",113 ± 1.6%,,
"CC(C)[C@@H]1NC(=O)[C@H](NC(=O)N[C@@H](Cc2ccc(O)cc2)C(=O)O)CCCCNC(=O)[C@H](Cc2ccccc2)NC(=O)[C@H](C)N(C)C(=O)[C@H](CCc2ccc(O)cc2)NC1=O [ANBP-A, anabaenopeptin A] ({Tyr-CO}-[dK]V[hTyr][NMeA]F; lactam 1-C)",112 ± 8.1%,,
"CC(C)[C@@H]1NC(=O)[C@H](NC(=O)N[C@@H](CCCNC(=N)N)C(=O)O)CCCCNC(=O)[C@H](Cc2ccccc2)NC(=O)[C@H](C)N(C)C(=O)[C@H](CCc2ccc(O)cc2)NC1=O [ANBP-B, anabaenopeptin B] ({Arg-CO}-[dK]V[hTyr][NMeA]F; lactam 1-C)",100 ± 17.1%,,
Adda-Glu-Mdha-Ala-Leu-Masp-Arg,,did not degrade any cyanobacterial peptides,"cleaved bond [1]: Arg-Adda, day 3; fragment found [3]: linearized MC-LR (biodegradation product A)"
Adda-Glu-Mdha-Ala-Leu-Masp-Phe,,did not degrade any cyanobacterial peptides,"cleaved bond [4]: Phe-Adda, day 7"
Adda-Glu-Mdha-Ala-Tyr-Masp-Arg,,did not degrade any cyanobacterial peptides,"cleaved bond [4]: Arg-Adda, day 7; fragment found [5]: linearized MC-YR (peptide C)"

# From article PMC8068134 (Toxins, 2021)
